From patent US11123337B2, “4-methylsulfonyl-substituted piperidine urea compounds” (MYOKARDIA, INC., priority 2015, dated 2021)

Molecular target: bovine cardiac myosin (Bos taurus, UniProt Q9BE39)
Assay: Myosin activation assay (PK/LDH-coupled ATPase, bovine cardiac myofibrils)
Type: biochemical
Conditions: AC20 = concentration at which total response is increased by twenty percent
How it was run: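 Values are the concentrations raising the ATPase rate by 20% or 50% over DMSO, from 10-point dose responses fitted with four parameters. Rate is NADH loss at 340 nm via PK/LDH coupling, read 15 min at room temperature, in pH 6.8 PIPES with 50 μM ATP. Bovine cardiac myofibrils were held at pCa ~6 or pCa 10.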

bovine cardiac myosin, sequence (Q9BE39 whole entry): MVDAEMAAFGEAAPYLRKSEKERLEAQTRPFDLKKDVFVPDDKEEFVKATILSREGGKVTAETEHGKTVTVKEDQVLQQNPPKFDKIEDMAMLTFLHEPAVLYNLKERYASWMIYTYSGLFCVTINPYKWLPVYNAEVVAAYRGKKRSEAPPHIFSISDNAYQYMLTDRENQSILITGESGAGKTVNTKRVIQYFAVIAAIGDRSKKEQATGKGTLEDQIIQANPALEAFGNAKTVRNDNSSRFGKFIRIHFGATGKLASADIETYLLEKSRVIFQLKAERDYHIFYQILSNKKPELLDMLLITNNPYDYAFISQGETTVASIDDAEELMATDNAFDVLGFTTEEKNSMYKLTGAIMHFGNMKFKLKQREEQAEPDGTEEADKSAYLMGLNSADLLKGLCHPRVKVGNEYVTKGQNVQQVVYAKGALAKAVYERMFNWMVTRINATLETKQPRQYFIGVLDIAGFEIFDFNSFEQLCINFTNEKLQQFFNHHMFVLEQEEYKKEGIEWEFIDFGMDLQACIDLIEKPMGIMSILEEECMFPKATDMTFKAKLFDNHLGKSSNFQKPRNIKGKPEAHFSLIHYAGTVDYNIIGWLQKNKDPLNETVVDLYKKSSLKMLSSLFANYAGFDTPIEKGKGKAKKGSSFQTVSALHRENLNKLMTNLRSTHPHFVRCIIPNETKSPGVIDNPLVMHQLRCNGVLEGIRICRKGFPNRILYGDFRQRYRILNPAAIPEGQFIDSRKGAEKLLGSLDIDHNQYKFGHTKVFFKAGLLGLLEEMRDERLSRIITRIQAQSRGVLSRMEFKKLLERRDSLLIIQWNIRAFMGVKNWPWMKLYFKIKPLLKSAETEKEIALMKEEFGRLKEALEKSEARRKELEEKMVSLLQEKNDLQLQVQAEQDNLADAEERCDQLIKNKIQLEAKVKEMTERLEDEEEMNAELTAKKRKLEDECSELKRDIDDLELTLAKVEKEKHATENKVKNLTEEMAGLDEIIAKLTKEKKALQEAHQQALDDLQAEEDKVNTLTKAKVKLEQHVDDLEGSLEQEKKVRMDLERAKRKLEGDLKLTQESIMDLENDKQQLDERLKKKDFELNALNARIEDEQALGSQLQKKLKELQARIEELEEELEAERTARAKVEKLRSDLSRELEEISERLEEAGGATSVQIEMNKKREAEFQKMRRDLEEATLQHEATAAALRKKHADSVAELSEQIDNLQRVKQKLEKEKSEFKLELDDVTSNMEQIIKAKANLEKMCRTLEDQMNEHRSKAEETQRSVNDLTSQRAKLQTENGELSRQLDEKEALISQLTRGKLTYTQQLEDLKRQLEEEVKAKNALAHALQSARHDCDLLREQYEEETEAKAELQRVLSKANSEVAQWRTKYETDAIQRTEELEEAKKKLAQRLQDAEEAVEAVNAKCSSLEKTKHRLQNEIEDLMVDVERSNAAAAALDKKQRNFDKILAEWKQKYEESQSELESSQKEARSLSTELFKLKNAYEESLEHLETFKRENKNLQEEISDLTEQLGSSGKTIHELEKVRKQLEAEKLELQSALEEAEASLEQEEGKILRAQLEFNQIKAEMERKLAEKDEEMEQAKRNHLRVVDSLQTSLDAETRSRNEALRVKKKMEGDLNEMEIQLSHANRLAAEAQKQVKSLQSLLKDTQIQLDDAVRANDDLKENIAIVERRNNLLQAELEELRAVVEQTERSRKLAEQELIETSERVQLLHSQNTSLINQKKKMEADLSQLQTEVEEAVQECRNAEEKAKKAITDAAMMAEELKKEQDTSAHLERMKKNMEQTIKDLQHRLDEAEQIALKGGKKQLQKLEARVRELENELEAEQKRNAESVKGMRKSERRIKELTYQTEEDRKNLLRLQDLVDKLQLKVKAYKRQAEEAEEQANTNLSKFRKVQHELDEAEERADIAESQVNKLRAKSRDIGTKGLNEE
bovine cardiac myosin, sequence (P85100 whole entry partner): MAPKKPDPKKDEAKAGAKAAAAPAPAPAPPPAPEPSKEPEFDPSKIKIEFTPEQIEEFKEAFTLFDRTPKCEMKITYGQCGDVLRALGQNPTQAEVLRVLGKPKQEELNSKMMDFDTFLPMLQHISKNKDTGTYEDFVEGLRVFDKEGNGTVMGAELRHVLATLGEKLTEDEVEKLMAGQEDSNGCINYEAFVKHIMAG
bovine cardiac myosin, sequence (Q3SZE5 whole entry partner): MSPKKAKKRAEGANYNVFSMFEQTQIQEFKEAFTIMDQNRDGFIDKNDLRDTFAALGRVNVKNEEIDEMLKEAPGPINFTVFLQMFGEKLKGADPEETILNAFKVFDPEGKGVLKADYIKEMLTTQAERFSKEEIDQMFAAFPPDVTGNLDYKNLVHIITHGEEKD

SMILES | Myosin Activation (AC20)
Cn1nc(C(F)(F)F)cc1S(=O)(=O)C(C)(F)C1CCN(C(=O)Nc2ccnc(F)c2)CC1 (stereo not shown) [Compound 251, 4-(1-fluoro-1-((1-methyl-3-(trifluoromethyl)-1H-pyrazol-5-yl)sulfonyl)ethyl)-N-(2-fluoropyridin-4-yl)piperidine-1-carboxamide] | ++ (++ represents myosin activation value AC20 from 2 μM-5 μM)
Cn1nc(C(F)(F)F)cc1S(=O)(=O)C(C)(F)C1CCN(C(=O)Nc2ccc(F)nc2)CC1 (stereo not shown) [Compound 252, 4-(1-fluoro-1-((1-methyl-3-(trifluoromethyl)-1H-pyrazol-5-yl)sulfonyl)ethyl)-N-(6-fluoropyridin-3-yl)piperidine-1-carboxamide] | ++ (++ represents myosin activation value AC20 from 2 μM-5 μM)
Cn1cc(S(=O)(=O)[C@](C)(F)C2CCN(C(=O)Nc3ccc(F)nc3)CC2)c(C(F)F)n1 [Compound 257, (S)-4-(1-((3-(difluoromethyl)-1-methyl-1H-pyrazol-4-yl)sulfonyl)-1-fluoroethyl)-N-(6-fluoropyridin-3-yl)piperidine-1-carboxamide] | + (+ represents myosin activation value AC20 > 5 μM)
Cc1ccc(NC(=O)N2CCC([C@@](C)(F)S(=O)(=O)c3cn(C)nc3C(F)F)CC2)cn1 [Compound 258, (S)-4-(1-((3-(difluoromethyl)-1-methyl-1H-pyrazol-4-yl)sulfonyl)-1-fluoroethyl)-N-(6-methylpyridin-3-yl)piperidine-1-carboxamide] | + (+ represents myosin activation value AC20 > 5 μM)
Cn1cc(S(=O)(=O)[C@@](C)(F)C2CCN(C(=O)Nc3ccc(F)nc3)CC2)c(C(F)F)n1 [Compound 259, (R)-4-(1-((3-(difluoromethyl)-1-methyl-1H-pyrazol-4-yl)sulfonyl)-1-fluoroethyl)-N-(6-fluoropyridin-3-yl)piperidine-1-carboxamide] | +++ (+++ represents myosin activation value AC20 < 2 μM)
Cc1ccc(NC(=O)N2CCC([C@](C)(F)S(=O)(=O)c3cn(C)nc3C(F)F)CC2)cn1 [Compound 260, (R)-4-(1-((3-(difluoromethyl)-1-methyl-1H-pyrazol-4-yl)sulfonyl)-1-fluoroethyl)-N-(6-methylpyridin-3-yl)piperidine-1-carboxamide] | ++ (++ represents myosin activation value AC20 from 2 μM-5 μM)
Cn1cc(S(=O)(=O)[C@@](C)(F)C2CCN(C(=O)Nc3ccc(C(F)(F)F)nc3)CC2)c(C(F)F)n1 [Compound 261, (R)-4-(1-((3-(difluoromethyl)-1-methyl-1H-pyrazol-4-yl)sulfonyl)-1-fluoroethyl)-N-(6-(trifluoromethyl)pyridin-3-yl)piperidine-1-carboxamide] | + (+ represents myosin activation value AC20 > 5 μM)
CC(F)(C1CCN(C(=O)Nc2ccnnc2)CC1)S(=O)(=O)c1ccc(C(F)(F)F)nc1 (stereo not shown) [Compound 262, 4-(1-fluoro-1-((6-(trifluoromethyl)pyridin-3-yl)sulfonyl)ethyl)-N-(pyridazin-4-yl)piperidine-1-carboxamide] | +++ (+++ represents myosin activation value AC20 < 2 μM)
CC(F)(C1CCN(C(=O)Nc2ccnnc2)CC1)S(=O)(=O)c1ccccc1Cl (stereo not shown) [Compound 263, 4-(1-((2-chlorophenyl)sulfonyl)-1-fluoroethyl)-N-(pyridazin-4-yl)piperidine-1-carboxamide] | +++ (+++ represents myosin activation value AC20 < 2 μM)
CC(F)(C1CCN(C(=O)Nc2ccnnc2)CC1)S(=O)(=O)c1cccc(Cl)c1 (stereo not shown) [Compound 264, 4-(1-((3-chlorophenyl)sulfonyl)-1-fluoroethyl)-N-(pyridazin-4-yl)piperidine-1-carboxamide] | +++ (+++ represents myosin activation value AC20 < 2 μM)
CC(F)(C1CCN(C(=O)Nc2ccnnc2)CC1)S(=O)(=O)c1cccc(C#N)c1 (stereo not shown) [Compound 265, 4-(1-((3-cyanophenyl)sulfonyl)-1-fluoroethyl)-N-(pyridazin-4-yl)piperidine-1-carboxamide] | +++ (+++ represents myosin activation value AC20 < 2 μM)
CC(F)(C1CCN(C(=O)Nc2ccnnc2)CC1)S(=O)(=O)c1ccc(C(F)(F)F)cc1 (stereo not shown) [Compound 266, 4-(1-fluoro-1-((4-(trifluoromethyl)phenyl)sulfonyl)ethyl)-N-(pyridazin-4-yl)piperidine-1-carboxamide] | ++ (++ represents myosin activation value AC20 from 2 μM-5 μM)
Cn1nccc1S(=O)(=O)C(C)(F)C1CCN(C(=O)Nc2cnns2)CC1 (stereo not shown) [Compound 267, 4-(1-fluoro-1-((1-methyl-1H-pyrazol-5-yl)sulfonyl)ethyl)-N-(1,2,3-thiadiazol-5-yl)piperidine-1-carboxamide] | +++ (+++ represents myosin activation value AC20 < 2 μM)
CC(F)(C1CCN(C(=O)Nc2cnns2)CC1)S(=O)(=O)c1ccc(C(F)(F)F)cc1 (stereo not shown) [Compound 268, 4-(1-fluoro-1-((4-(trifluoromethyl)phenyl)sulfonyl)ethyl)-N-(1,2,3-thiadiazol-5-yl)piperidine-1-carboxamide] | +++ (+++ represents myosin activation value AC20 < 2 μM)
CCn1nccc1S(=O)(=O)C(C)(F)C1CCN(C(=O)Nc2ccnnc2)CC1 (stereo not shown) [Compound 269, 4-(1-((1-ethyl-1H-pyrazol-5-yl)sulfonyl)-1-fluoroethyl)-N-(pyridazin-4-yl)piperidine-1-carboxamide] | ++ (++ represents myosin activation value AC20 from 2 μM-5 μM)
CC(F)(C1CCN(C(=O)Nc2ccnnc2)CC1)S(=O)(=O)c1ccc(C#N)cc1 (stereo not shown) [Compound 270, 4-(1-((4-cyanophenyl)sulfonyl)-1-fluoroethyl)-N-(pyridazin-4-yl)piperidine-1-carboxamide] | +++ (+++ represents myosin activation value AC20 < 2 μM)
Cn1nccc1S(=O)(=O)C(C)(F)C1CCN(C(=O)Nc2ccnnc2)CC1 (stereo not shown) [Compound 271, 4-(1-fluoro-1-((1-methyl-1H-pyrazol-5-yl)sulfonyl)ethyl)-N-(pyridazin-4-yl)piperidine-1-carboxamide] | ++ (++ represents myosin activation value AC20 from 2 μM-5 μM)
Cn1cnc(S(=O)(=O)C(C)(F)C2CCN(C(=O)Nc3ccnnc3)CC2)c1 (stereo not shown) [Compound 272, 4-(1-fluoro-1-((1-methyl-1H-imidazol-4-yl)sulfonyl)ethyl)-N-(pyridazin-4-yl)piperidine-1-carboxamide] | + (+ represents myosin activation value AC20 > 5 μM)
COc1ccccc1S(=O)(=O)C(C)(F)C1CCN(C(=O)Nc2ccnnc2)CC1 (stereo not shown) [Compound 273, 4-(1-fluoro-1-((2-methoxyphenyl)sulfonyl)ethyl)-N-(pyridazin-4-yl)piperidine-1-carboxamide] | ++ (++ represents myosin activation value AC20 from 2 μM-5 μM)
CC(F)(C1CCN(C(=O)Nc2cnns2)CC1)S(=O)(=O)c1ccc(C#N)cc1 (stereo not shown) [Compound 274, 4-(1-((4-cyanophenyl)sulfonyl)-1-fluoroethyl)-N-(1,2,3-thiadiazol-5-yl)piperidine-1-carboxamide] | +++ (+++ represents myosin activation value AC20 < 2 μM)
CC(F)(C1CCN(C(=O)Nc2ccnnc2)CC1)S(=O)(=O)c1cc(F)cc(F)c1 (stereo not shown) [Compound 275, 4-(1-((3,5-difluorophenyl)sulfonyl)-1-fluoroethyl)-N-(pyridazin-4-yl)piperidine-1-carboxamide] | +++ (+++ represents myosin activation value AC20 < 2 μM)
Cn1cc(S(=O)(=O)C(C)(F)C2CCN(C(=O)Nc3ccnnc3)CC2)c(C(F)F)n1 (stereo not shown) [Compound 276, 4-(1-((3-(difluoromethyl)-1-methyl-1H-pyrazol-4-yl)sulfonyl)-1-fluoroethyl)-N-(pyridazin-4-yl)piperidine-1-carboxamide] | +++ (+++ represents myosin activation value AC20 < 2 μM)
Cn1nc(C(F)(F)F)cc1S(=O)(=O)C(C)(F)C1CCN(C(=O)Nc2ccnnc2)CC1 (stereo not shown) [Compound 277, 4-(1-fluoro-1-((1-methyl-3-(trifluoromethyl)-1H-pyrazol-5-yl)sulfonyl)ethyl)-N-(pyridazin-4-yl)piperidine-1-carboxamide] | +++ (+++ represents myosin activation value AC20 < 2 μM)
C[C@](F)(C1CCN(C(=O)Nc2ccnnc2)CC1)S(=O)(=O)c1cccc(F)c1 [Compound 278, (R)-4-(1-fluoro-1-((3-fluorophenyl)sulfonyl)ethyl)-N-(pyridazin-4-yl)piperidine-1-carboxamide] | +++ (+++ represents myosin activation value AC20 < 2 μM)
C[C@@](F)(C1CCN(C(=O)Nc2ccnnc2)CC1)S(=O)(=O)c1cccc(F)c1 [Compound 279, (S)-4-(1-fluoro-1-((3-fluorophenyl)sulfonyl)ethyl)-N-(pyridazin-4-yl)piperidine-1-carboxamide] | + (+ represents myosin activation value AC20 > 5 μM)
Cn1nccc1S(=O)(=O)C(C)(F)C1CCN(C(=O)Nc2ccon2)CC1 (stereo not shown) [Compound 280, 4-(1-fluoro-1-((1-methyl-1H-pyrazol-5-yl)sulfonyl)ethyl)-N-(isoxazol-3-yl)piperidine-1-carboxamide] | + (+ represents myosin activation value AC20 > 5 μM)
Cn1cc(S(=O)(=O)C(C)(F)C2CCN(C(=O)Nc3ccnnc3)CC2)c(C(F)(F)F)n1 (stereo not shown) [Compound 281, 4-(1-fluoro-1-((1-methyl-3-(trifluoromethyl)-1H-pyrazol-4-yl)sulfonyl)ethyl)-N-(pyridazin-4-yl)piperidine-1-carboxamide] | ++ (++ represents myosin activation value AC20 from 2 μM-5 μM)
CC(F)(C1CCN(C(=O)Nc2ccon2)CC1)S(=O)(=O)c1cccc(C#N)c1 (stereo not shown) [Compound 282, 4-(1-((3-cyanophenyl)sulfonyl)-1-fluoroethyl)-N-(isoxazol-3-yl)piperidine-1-carboxamide] | ++ (++ represents myosin activation value AC20 from 2 μM-5 μM)
